According to PubChem BioAssay (NCI):
Values joined by “and” are separate entries in the source; they are usually repeats but may differ in a detail not shown here. Identical values can stand only once.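 Method: 48-hour compound exposure of cells in 96-well plates, five concentrations, linear interpolation of endpoints. Here, GI50 denotes the concentration required for 50% inhibition of growth. TGI is the concentration that stops growth completely.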

Legend:
Assay in all cases: DTP human tumour cell line panel, 48 h
NCI-H226 lung = tested on: NCI-H226 lung
OVCAR-3 ovarian = tested on: OVCAR-3 ovarian
SF-268 CNS = tested on: SF-268 CNS
XF 498 CNS = tested on: XF 498 CNS
A498 renal = tested on: A498 renal
DU-145 prostate = tested on: DU-145 prostate
MDA-MB-231 breast = tested on: MDA-MB-231 breast
MDA-MB-435 = tested on: MDA-MB-435
SK-MEL-5 melanoma = tested on: SK-MEL-5 melanoma
SNB-78 CNS = tested on: SNB-78 CNS

Structure (SMILES) | TGI (NCI-H226 lung) | TGI (OVCAR-3 ovarian) | TGI (SF-268 CNS) | TGI (XF 498 CNS) | TGI (A498 renal) | TGI (DU-145 prostate) | TGI (MDA-MB-231 breast) | TGI (MDA-MB-435) | TGI (SK-MEL-5 melanoma) | GI50 (A498 renal) | GI50 (NCI-H226 lung) | GI50 (OVCAR-3 ovarian) | GI50 (SF-268 CNS) | GI50 (SK-MEL-5 melanoma) | GI50 (SNB-78 CNS) | TGI (SNB-78 CNS)
Cn1c(=O)n(CC2CS2)c2ccccc21 (stereo not given) | > 100 µM | > 100 µM | > 100 µM | > 100 µM |  |  |  |  |  |  |  |  |  |  |  | 
N#Cc1c(N2CCN(c3ccc([N+](=O)[O-])cc3)CC2)[n+](=O)c2ccc(-c3ccc([N+](=O)[O-])cc3)cc2n1[O-] | > 100 µM | > 77.2 µM | > 100 µM |  | > 100 µM | > 100 µM | > 48.6 µM | > 100 µM | 17.5 µM |  |  |  |  |  |  | 
CC(=O)Nc1ccc(/C=C2/NC(=S)N(/C=C3\C(=O)Oc4ccccc4C3=O)C2=O)cc1 | > 100 µM | > 100 µM | > 100 µM |  | > 100 µM | > 100 µM | > 100 µM | > 100 µM | > 100 µM |  |  |  |  |  |  | 
COC(=O)C1CC23C=CCN4CC(C2C)C2(c5ccccc5NC12)C43 (stereo not given) | > 100 µM | > 100 µM | > 100 µM |  | > 100 µM | > 100 µM | > 100 µM | > 100 µM | > 100 µM |  |  |  |  |  |  | 
C=CCc1ccccc1C1CC2(C(=O)OC)OC1C(C(=O)OC)=C2C(=O)OC (stereo not given) | > 10 µM | > 10 µM | > 10 µM |  | > 10 µM | > 10 µM | > 10 µM | > 10 µM | > 10 µM |  |  |  |  |  |  | 
COC1(OC)C=CC(=O)C=C1 | 10.4 µM | 12.4 µM | 16.7 µM |  | > 91.2 µM | 12.6 µM | 7.2 µM | 12.8 µM | 46.2 µM |  |  |  |  |  |  | 
COc1cc(C)cc2c(-c3c(O)cc(O)c4c3C[C@H](C)N[C@H]4C)cc(-c3cc(-c4c(O)cc(O)c5c4C[C@H](C)N[C@H]5C)c4cc(C)cc(OC)c4c3O)c(O)c12 | > 100 µM | > 100 µM | > 100 µM |  | > 100 µM | > 100 µM | > 100 µM | > 100 µM | > 100 µM |  |  |  |  |  |  | 
O=[N+]([O-])c1ccc2nc(/C=C(\O)c3ccc(Cl)cc3)c(/C=C(\O)c3ccc(Cl)cc3)nc2c1 | > 100 µM | > 100 µM | > 100 µM |  | > 100 µM | > 100 µM | > 100 µM | > 100 µM | > 100 µM |  |  |  |  |  |  | 
CC(=Nc1cc(Cl)cc(Cl)c1)c1ccncc1 | > 100 µM | > 100 µM | > 100 µM |  | > 100 µM | > 100 µM | > 100 µM | > 100 µM | > 100 µM |  |  |  |  |  |  | 
O=[N+]([O-])c1ccc2c(c1)n1c(N3CCCC3)[n+]3ccccc3c1c1c3cccc[n+]3c(N3CCCC3)n21 | > 100 µM | > 100 µM | 42.6 µM |  | > 100 µM | > 100 µM | > 100 µM | > 100 µM | > 100 µM |  |  |  |  |  |  | 
O=C1/C(=C/c2ccc(O)cc2)CCC1CNc1ccccc1 (stereo not given) | 37.9 µM | 28.4 µM | 28.2 µM |  | 31.9 µM | 16.9 µM | 30.9 µM | 36.2 µM | 30.6 µM |  |  |  |  |  |  | 
CCC1(OC(=O)CN)C(=O)OCc2c1cc1n(c2=O)Cc2cc3cc4c(cc3nc2-1)OCO4 (stereo not given) | 0.201 µM and 0.299 µM | 1.05 µM and 0.554 µM | > 100 µM |  | 0.0787 µM and 0.241 µM |  |  |  | 0.0759 µM | 0.0161 µM and 0.038 µM | 0.024 µM and < 0.01 µM | 0.196 µM and 0.131 µM | < 0.01 µM | < 0.01 µM | 0.468 µM | 81.8 µM
C=C(CCOC)CCC1CCCCC(=C)[C@H]1O (stereo not given in full) | > 100 µM | > 100 µM | > 100 µM |  | > 100 µM | > 100 µM | > 100 µM | > 100 µM | > 100 µM |  |  |  |  |  |  | 
O=C(O)CCSC1=NCCN1 | > 100 µM | > 100 µM | > 100 µM |  | > 100 µM | > 100 µM | > 100 µM | > 100 µM | > 100 µM |  |  |  |  |  |  | 
CC(=O)O[C@H]1CCC2[C@@H]3CCC4NC(=O)C(C#N)C[C@]4(C)C3CC[C@@]21C (stereo not given in full) | > 10 µM | > 10 µM | > 10 µM |  | > 10 µM | > 10 µM | > 10 µM | > 10 µM | > 10 µM |  |  |  |  |  |  | 
CC1=NN2C(=N)/C(=C/c3ccccc3)C(=O)N=C2S1 | > 100 µM | > 100 µM | > 100 µM |  | > 100 µM | > 100 µM | > 100 µM | > 100 µM | > 100 µM |  |  |  |  |  |  | 
Cc1c(C#N)c(=N)oc2ccccc12 | > 100 µM | > 100 µM | > 100 µM |  | > 100 µM | > 100 µM | > 100 µM | > 100 µM | > 100 µM |  |  |  |  |  |  | 
C/C(=N/NC(=S)N1CCN(C(=S)N/N=C(/C)c2ccccn2)CC1)c1ccccn1 | > 74.5 µM | > 100 µM | 57 µM |  | > 58.6 µM | > 95.5 µM | > 100 µM | > 100 µM | > 80.7 µM |  |  |  |  |  |  | 

Structure (SMILES) | TGI (NCI-H226 lung) | TGI (OVCAR-3 ovarian) | TGI (SF-268 CNS) | TGI (XF 498 CNS) | TGI (A498 renal) | TGI (DU-145 prostate) | TGI (MDA-MB-231 breast) | TGI (MDA-MB-435) | TGI (SK-MEL-5 melanoma) | GI50 (A498 renal) | GI50 (NCI-H226 lung) | GI50 (OVCAR-3 ovarian) | GI50 (SF-268 CNS) | GI50 (SK-MEL-5 melanoma) | GI50 (SNB-78 CNS) | TGI (SNB-78 CNS)
CCN1CCCn2c(=O)[nH]c3cc(Br)cc1c32 | > 100 µM | > 100 µM | > 100 µM |  | > 100 µM | > 100 µM | > 100 µM | > 100 µM | > 100 µM |  |  |  |  |  |  | 
Cc1nc2c(n1-c1ccccc1)C(=O)c1ccccc1C2=O | > 100 µM | 54.1 µM | > 100 µM |  | > 100 µM |  |  |  | > 100 µM |  |  |  |  |  |  | > 100 µM
C=CCOC1(CC=C)C(=O)OC2C(O)COC21O (stereo not given) | > 100 µM | > 100 µM | > 100 µM |  | > 100 µM | > 100 µM | > 100 µM | > 100 µM | > 100 µM |  |  |  |  |  |  | 
COC(=O)c1cc(C)ccc1/C=C1\Cc2c(C)cc(C)cc2C1=O | > 82.7 µM | > 100 µM | 37.1 µM |  | 76.4 µM | > 100 µM | > 58.4 µM | > 100 µM | > 100 µM |  |  |  |  |  |  | 
CNC(=O)N(CCC#N)CCCN(C(=O)N(C)C)c1ccccc1 | > 100 µM | > 100 µM | > 100 µM |  | > 100 µM | > 100 µM | > 100 µM | > 100 µM | > 100 µM |  |  |  |  |  |  | 
CC1=CC[C@](C)(O)[C@@]2(C)CC[C@H]3C(=C(C)C)C(=O)C[C@]3(C)C[C@H]12 | > 50 µM | > 50 µM | > 50 µM |  | > 50 µM | > 50 µM | > 50 µM | > 50 µM | > 50 µM |  |  |  |  |  |  | 
CS(=O)(=O)[O-].CS(=O)(=O)[O-].NC1CCCCC1N.[Pt+4] (stereo not given) | > 100 µM | > 100 µM | > 100 µM |  | > 100 µM |  |  |  | > 100 µM | > 100 µM | 39.2 µM | > 100 µM | > 65.9 µM | 48.4 µM | > 100 µM | > 100 µM
Nc1ccc2c(c1)NC(=O)[C@@H]1CCCN1C2=O | > 100 µM | > 100 µM | > 100 µM |  | > 100 µM | > 100 µM | > 100 µM | > 100 µM | > 100 µM |  |  |  |  |  |  | 
O=C(O)COc1cc(-c2ccccc2)nc2ccccc12 | > 100 µM | > 100 µM | > 100 µM |  | > 100 µM | > 100 µM | > 100 µM | 73.8 µM | > 100 µM |  |  |  |  |  |  | 
CC(=O)NC(=O)NC1=NCCC(=O)N1CCc1c[nH]c2ccccc12 | > 100 µM | > 100 µM | > 100 µM |  | > 100 µM | > 100 µM | > 100 µM | > 100 µM | > 100 µM |  |  |  |  |  |  | 
Cc1ccc(/C=N\NC(=O)c2ccncc2)s1 | > 100 µM | > 100 µM | > 100 µM |  | > 100 µM | > 100 µM | > 100 µM | > 100 µM | > 100 µM |  |  |  |  |  |  | 
O=c1nc2ccc3sc4ccccc4c(=O)c3n2c(=O)[nH]1 | > 100 µM | > 100 µM | > 100 µM |  | > 100 µM | > 100 µM | > 100 µM | > 100 µM | > 100 µM |  |  |  |  |  |  | 
CCN(CC)/[N+]([O-])=N/O | > 100 µM | > 100 µM | > 100 µM | > 100 µM | > 100 µM |  |  |  | > 100 µM |  |  |  |  |  |  | > 100 µM
C[C@]12CC[C@H]3[C@@H](CCC4=C(Br)C(=O)C=C[C@@]43O)[C@@H]1CCC2=O | > 100 µM | > 100 µM | > 100 µM |  | > 100 µM | 68.7 µM | > 100 µM | > 100 µM | > 100 µM |  |  |  |  |  |  | 
C=CCCCCn1c2ccccc2c2c(C)c3cnccc3c(C)c21 | 94.9 µM | 19.9 µM | 77.8 µM | 4.36 µM | 17.8 µM |  |  |  | 16.7 µM |  |  |  |  |  |  | 46.3 µM
COc1ccc2c(c1)C(=O)C1CCC(=O)N1C2c1ccc2c(c1)OCO2 (stereo not given) | 30.3 µM | 15.3 µM | 53.3 µM |  | 38.1 µM | 33.4 µM | 54.6 µM | 24.4 µM | 24.9 µM |  |  |  |  |  |  | 
COc1cc2oc(=O)cc(C)c2c(OC)c1OC(C)=O | > 100 µM | > 100 µM | > 100 µM |  | > 100 µM | > 100 µM | > 100 µM | > 100 µM | > 100 µM |  |  |  |  |  |  | 
